From patent US4513008A, “Virucidal compositions and therapy” (The Vinoxen Company, Inc., priority 1982, dated 1985)

How the values were obtained:
herpes virus type 2 = assay: Guinea pig bioassay: intravaginal HSV-2 infection, topical treatment; type: in vivo; parameters: key to MVL Score Day 5 / MVL Score Day 6 / MVL Score Day 7 / MVL Score Day: lesion severity scored on 0 to 4 scale; details: for MVL Scores Days 5-8: 0 to 4 scale; for Infected, Treated Surv/Total: 28 days; for MVL Score Day: last day; for reduction in lesion scores, in words: guinea pigs, topical
Procedure: In both studies, DHA was compared with ACV in a controlled study for effectiveness in reducing the occurrence and the severity of lesions resulting from infection by HSV-2 and in reducing mortality resulting from the virus infection.
Using substantially the procedures of Pancic et al., loc. cit., the topical activity of DHA, a representative and preferred virucide for use in the present method, was evaluated in mice and in guinea pigs. Both evaluations included comparative testing against ACV and the mouse tests included a comparison of two different vehicles.
A blind comparative test was carried out on guinea pigs using coded substances labeled A through D. The testers were told only that one of the four substances was ACV, that the other three coded samples were the same material, in concentrations of 0.1, 1.0 and 10 mg/ml, and that all four samples were formulated in a polyethylene glycol 1000 (PEG-1000) vehicle. A separate sample of the PEG-1000 was also submitted to serve as a placebo for treating virus control animals. The materials and experimental protocol is shown below.
Animals. Female Hartley strain albino guinea pigs weighing about 450-500 g were used. The animals were quarantined 24 hr prior to use in this study, and maintained 5 to a 32"×32"×9" stainless steel cage on Wayne guinea pig diet and water ad libitum.
Virus. Strain E194 of herpes virus type 2 was used. […] The virus was held at -90° C. until used.
(§1) Drugs. The substances tested consisted of four bottles labelled "A", "B", "C", and "D" with no identifying key. The samples were: A, 0.1 mg/ml DHA (0.003 mmol/ml); B, 5% w/w ACV (0.22 mmol/ml); C, 1 mg/ml DHA (0.03 mmol/ml); and D, 10 mg/ml DHA ([…]). […] All were treated as light-sensitive compounds.
Experimental Protocol. The guinea pigs were infected by applying a virus-soaked swab intravaginally, with agitation, for 20 seconds. […] Treatment began 20 hr later, with the compound or placebo applied topically intravaginally, perivaginally, and perianally using cotton swabs soaked in the respective substance. Treatment continued three times daily (8 a.m., noon, 4 p.m.) for 7 days. Ten infected animals were used for each coded substance, with twenty used for virus controls. Five sham-infected animals were concomitantly treated with each coded substance to serve as toxicity controls. Two guinea pigs were held separately to serve as normal untreated controls.
(§2) On days 5 through 8 post-virus inoculation, the genital area was carefully examined and signs of irritation in the toxicity controls and lesion severity in injected animals was scored on a 0 to 4 scale using the same scale as in the mouse bioassay. The results were scored as average daily lesion (ADL) scores for each group, and as mean vaginal lesion (MVL) scores, calculated as the mean of the ADL scores for days 5-8. The maximum mean score for the toxicity control animals was also determined.
On day 6 prior to the 8 a.m. treatment, intravaginal and perivaginal areas of each infected guinea pig were uniformly swabbed with sterile cotton swabs. The swab for each animal was placed in 1.0 ml of sterile Eagles minimum essential medium and immediately frozen at -90° C.; several days later all were thawed and each swab-containing sample vortexed for 15 seconds and then the sample was diluted through a series of 10-fold dilutions in sterile medium. Each dilution was assayed for virus in triplicate by adding 0.1 ml to an established monolayer of MA-104 cells in 96-well disposable plastic microplates. The plates were sealed, incubated at 72 hr at 37° C., and virus-induced cytopathic effect noted microscopically.
Data Analysis. Increases in survivors were analyzed using chi square analysis with Yate's correction. Mean survival times (MST) of animals dying on or before […] were determined for each group, and evaluated using the t test.

[1] = Guinea pig toxicity controls (sham-infected, topical treatment); type: in vivo, guinea pigs; details: for Toxicity Controls Max. Irrit. Score: 0 to 4 scale
Procedure: as §1
Experimental Protocol. The guinea pigs were infected by applying a virus-soaked swab intravaginally, with agitation, for 20 seconds. Toxicity control animals were similar pretreated using swabs soaked in sterile Puck's balanced salt solution. Treatment began 20 hr later, with the compound or placebo applied topically intravaginally, perivaginally, and perianally using cotton swabs soaked in the respective substance. Treatment continued three times daily (8 a.m., noon, 4 p.m.) for 7 days. Ten infected animals were used for each coded substance, with twenty used for virus controls. Five sham-infected animals were concomitantly treated with each coded substance to serve as toxicity controls. Two guinea pigs were held separately to serve as normal untreated controls.
as §2, with “Each animal was observed daily for survival for a total of 28 days. On” for “On”

HSV-2 = assay: Separate experiments: speed of virus inhibition by DHA
[2] = Visually observed solubility in DMSO-HBSS; type: physicochemical; details: 1 mg in 1 ml of 70% DMSO-30% HBSS
Procedure: Vehicles. […] The DMSO-HBSS vehicle was selected based on the observed (visually) solubility of DHA in various DMSO-HBSS solutions. 1 mg DHA was soluble in 1 ml of 70% DMSO-30% HBSS.

[3] = C: 1 mg/ml DHA in PEG-1000, P < 0.05
[4] = D: 10 mg/ml DHA in PEG-1000, P < 0.05

**Q.** For CCC=CCC=CCC=CCC=CCC=CCC=CCCC(=O)O [DHA, 4,7,10,13,16,19 Docosahexaenoic Acid], which “MST (mean survival time)” value (herpes virus type 2; A: 0.1 mg/ml DHA in PEG-1000) is on record?
**A.** 12.3 days

**Q.** And the “MVL Score Day 5” value (herpes virus type 2; A: 0.1 mg/ml DHA in PEG-1000)?
**A.** 2.4

**Q.** And the “MVL Score Day 6” value (herpes virus type 2; A: 0.1 mg/ml DHA in PEG-1000)?
**A.** 3.0

**Q.** What about the “MVL Score Day 7” value (herpes virus type 2; A: 0.1 mg/ml DHA in PEG-1000) of the same compound?
**A.** 3.5

**Q.** And the “MVL Scores Days 5-8” value (herpes virus type 2; A: 0.1 mg/ml DHA in PEG-1000)?
**A.** 3.2

**Q.** What about the “Infected, Treated Surv/Total” value (herpes virus type 2; A: 0.1 mg/ml DHA in PEG-1000) of the same compound?
**A.** 6/10

**Q.** What about the “MVL Score Day” value (herpes virus type 2; A: 0.1 mg/ml DHA in PEG-1000) of the same compound?
**A.** 3.8

**Q.** And the “MST (mean survival time)” value (herpes virus type 2; C: 1 mg/ml DHA in PEG-1000)?
**A.** 13.3 days

**Q.** What about the “MVL Score Day 5” value (herpes virus type 2; C: 1 mg/ml DHA in PEG-1000) of the same compound?
**A.** 1.7

**Q.** What about the “MVL Score Day 7” value (herpes virus type 2; C: 1 mg/ml DHA in PEG-1000) of the same compound?
**A.** 2.8

**Q.** What about the “MVL Scores Days 5-8” value (herpes virus type 2; [3]) of the same compound?
**A.** 2.4

**Q.** What about the “Infected, Treated Surv/Total” value (herpes virus type 2; C: 1 mg/ml DHA in PEG-1000) of the same compound?
**A.** 4/10

**Q.** And the “MVL Score Day 6” value (herpes virus type 2; [3])?
**A.** 2.3

**Q.** And the “MVL Score Day” value (herpes virus type 2; C: 1 mg/ml DHA in PEG-1000)?
**A.** 3.1

**Q.** What about the “MST (mean survival time)” value (herpes virus type 2; D: 10 mg/ml DHA in PEG-1000) of the same compound?
**A.** 16.5 days

**Q.** What about the “MVL Score Day 7” value (herpes virus type 2; D: 10 mg/ml DHA in PEG-1000) of the same compound?
**A.** 3.0

**Q.** What about the “MVL Scores Days 5-8” value (herpes virus type 2; [4]) of the same compound?
**A.** 2.4

**Q.** What about the “Infected, Treated Surv/Total” value (herpes virus type 2; D: 10 mg/ml DHA in PEG-1000) of the same compound?
**A.** 8/10

**Q.** What about the “MVL Score Day 5” value (herpes virus type 2; [4]) of the same compound?
**A.** 1.5

**Q.** And the “MVL Score Day 6” value (herpes virus type 2; [4])?
**A.** 2.1

**Q.** And the “MVL Score Day” value (herpes virus type 2; D: 10 mg/ml DHA in PEG-1000)?
**A.** 3.1

**Q.** What about the “reduction in lesion scores, in words” value (herpes virus type 2) of the same compound?
**A.** neither ACV nor the lowest dosage of DHA were able to achieve a statistically significant reduction in lesion scores

**Q.** What about the “reduction in lesion scores, in words” value (herpes virus type 2; listed as C) of the same compound?
**A.** statistically significant reductions in lesion scores

**Q.** And the “reduction in lesion scores, in words” value (herpes virus type 2; listed as D)?
**A.** statistically significant reductions in lesion scores

**Q.** What about the “Toxicity Controls Surv/Total” value ([1]; A: 0.1 mg/ml DHA in PEG-1000) of the same compound?
**A.** 5/5

**Q.** And the “Toxicity Controls Max. Irrit. Score” value ([1]; A: 0.1 mg/ml DHA in PEG-1000)?
**A.** 0.0

**Q.** What about the “Toxicity Controls Surv/Total” value ([1]; C: 1 mg/ml DHA in PEG-1000) of the same compound?
**A.** 5/5

**Q.** What about the “Toxicity Controls Max. Irrit. Score” value ([1]; C: 1 mg/ml DHA in PEG-1000) of the same compound?
**A.** 0.0

**Q.** What about the “Toxicity Controls Surv/Total” value ([1]; D: 10 mg/ml DHA in PEG-1000) of the same compound?
**A.** 5/5

**Q.** What about the “Toxicity Controls Max. Irrit. Score” value ([1]; D: 10 mg/ml DHA in PEG-1000) of the same compound?
**A.** 0.0

**Q.** And the virus inhibited (HSV-2; within 30 seconds of contact)?
**A.** more than 98%

**Q.** What about the virus inhibited (HSV-2; within 30 minutes of contact) of the same compound?
**A.** > 99.99%

**Q.** And the solubility [2]?
**A.** soluble
